Target: T1, human mAChR M4 (Homo sapiens, UniProt P08173)
T1 construct: expressed in transfected cells; host or cells: CHO-K1 (American Type Culture Collection), stably expressing hM4 and Gqi5
T1 sequence (P08173 1-479): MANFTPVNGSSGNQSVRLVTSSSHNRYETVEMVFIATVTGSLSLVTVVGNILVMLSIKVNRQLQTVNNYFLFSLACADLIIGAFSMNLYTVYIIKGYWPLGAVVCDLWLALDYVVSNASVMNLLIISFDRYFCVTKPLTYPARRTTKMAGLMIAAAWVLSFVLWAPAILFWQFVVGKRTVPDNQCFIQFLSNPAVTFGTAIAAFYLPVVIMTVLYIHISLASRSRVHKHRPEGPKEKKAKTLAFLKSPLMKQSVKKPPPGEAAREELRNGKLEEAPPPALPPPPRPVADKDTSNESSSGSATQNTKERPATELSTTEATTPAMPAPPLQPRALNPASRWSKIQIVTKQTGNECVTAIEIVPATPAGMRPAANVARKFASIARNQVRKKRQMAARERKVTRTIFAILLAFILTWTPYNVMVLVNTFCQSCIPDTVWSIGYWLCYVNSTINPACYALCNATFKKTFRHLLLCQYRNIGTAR
Test: mAChR M4 cell-based functional assay: calcium mobilization (Fluo-4, FDSS), potentiation of EC20 acetylcholine response in hM4-Gqi5 CHO-K1 cells
Conditions: human M4; for Emax at 30 µM: CHO-K1, % ACh maximum at 30 μM; for EC50: potentiation of EC20 acetylcholine response, calcium mobilization
Outline: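 Readout is the fluorescence-ratio rise at 1 Hz on FDSS, with PAM activity taken as concentration-dependent enhancement of the EC20 acetylcholine response, fitted four-parameter for EC50/Emax. hM4-Gqi5 CHO-K1 cells carried Fluo-4 AM dye; test compounds (11 points, 1:3) preceded EC20 acetylcholine additions at 144 s and 230 s.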

Row | SMILES | Emax at 30 µM [%] | EC50 [nM]
1 | Cc1ccc2c(c1)N(c1cnc3c(c1)CN(c1nn4c(=O)ccnc4cc1C)CC3)C(C)CO2 (stereo not drawn) [Compound 2-54, 7-(3-(3,6-dimethyl-2,3-dihydro-4H-benzo[b][1,4]oxazin-4-yl)-7,8-dihydro-1,6-naphthyridin-6(5H)-yl)-8-methyl-4H-pyrimido[1,2-b]pyridazin-4-one] | 96 | 64
2 | Cc1cc2nccc(=O)n2nc1N1CCc2ncc(N3CC(C)Oc4cc(F)ccc43)cc2C1 (stereo not drawn) [Compound 2-55, 7-(3-(7-fluoro-2-methyl-2,3-dihydro-4H-benzo[b][1,4]oxazin-4-yl)-7,8-dihydro-1,6-naphthyridin-6(5H)-yl)-8-methyl-4H-pyrimido[1,2-b]pyridazin-4-one] | 89 | 108
3 | Cc1cc2nccc(=O)n2nc1N1CCc2ncc(N3CCOc4cc(F)ccc43)cc2C1 [Compound 2-56, 7-(3-(7-fluoro-2,3-dihydro-4H-benzo[b][1,4]oxazin-4-yl)-7,8-dihydro-1,6-naphthyridin-6(5H)-yl)-8-methyl-4H-pyrimido[1,2-b]pyridazin-4-one] | 98 | 14
4 | Cc1cc2nccc(=O)n2nc1N1CCc2ncc(N3CC(C)Oc4ccccc43)cc2C1 (stereo not drawn) [Compound 2-57, 8-methyl-7-(3-(2-methyl-2,3-dihydro-4H-benzo[b][1,4]oxazin-4-yl)-7,8-dihydro-1,6-naphthyridin-6(5H)-yl)-4H-pyrimido[1,2-b]pyridazin-4-one] | 93 | 20
5 | Cc1cc2nccc(=O)n2nc1N1CCc2ncc(N3CCc4ncccc43)cc2C1 [Compound 2-58, 7-(3-(2,3-dihydro-1H-pyrrolo[3,2-b]pyridin-1-yl)-7,8-dihydro-1,6-naphthyridin-6(5H)-yl)-8-methyl-4H-pyrimido[1,2-b]pyridazin-4-one] | 86 | 188
6 | Cc1cc2nccc(=O)n2nc1N1CCc2ncc(N3CCOC(c4ccccc4F)C3)cc2C1 (stereo not drawn) [Compound 2-59, 7-(3-(2-(2-fluorophenyl)morpholino)-7,8-dihydro-1,6-naphthyridin-6(5H)-yl)-8-methyl-4H-pyrimido[1,2-b]pyridazin-4-one] | 74 | 268
7 | Cc1cc2nccc(=O)n2nc1N1CCc2ncc(Nc3ccccc3)cc2C1 [Compound 2-60, 8-methyl-7-(3-(phenylamino)-7,8-dihydro-1,6-naphthyridin-6(5H)-yl)-4H-pyrimido[1,2-b]pyridazin-4-one] | 91 | 29
8 | Cc1cc2nccc(=O)n2nc1N1CCc2ncc(N3CCOC(c4cccc(F)c4)C3)cc2C1 (stereo not drawn) [Compound 2-61, 7-(3-(2-(3-fluorophenyl)morpholino)-7,8-dihydro-1,6-naphthyridin-6(5H)-yl)-8-methyl-4H-pyrimido[1,2-b]pyridazin-4-one] | 84 | 518
9 | COc1ccccc1Nc1cnc2c(c1)CN(c1nn3c(=O)ccnc3cc1C)CC2 [Compound 2-62, 7-(3-((2-methoxyphenyl)amino)-7,8-dihydro-1,6-naphthyridin-6(5H)-yl)-8-methyl-4H-pyrimido[1,2-b]pyridazin-4-one] | 87 | 221
10 | Cc1cc2nccc(=O)n2nc1N1CCc2ncc(Nc3ccc(F)cc3)cc2C1 [Compound 2-63, 7-(3-((4-fluorophenyl)amino)-7,8-dihydro-1,6-naphthyridin-6(5H)-yl)-8-methyl-4H-pyrimido[1,2-b]pyridazin-4-one] | 91 | 79
11 | Cc1cc2nccc(=O)n2nc1N1CCc2ncc(N3CCOC(c4ccc(F)cc4)C3)cc2C1 (stereo not drawn) [Compound 2-64, 7-(3-(2-(4-fluorophenyl)morpholino)-7,8-dihydro-1,6-naphthyridin-6(5H)-yl)-8-methyl-4H-pyrimido[1,2-b]pyridazin-4-one] | 84 | 398
12 | Cc1cc(F)ccc1Nc1cnc2c(c1)CN(c1nn3c(=O)ccnc3cc1C)CC2 [Compound 2-65, 7-(3-((4-fluoro-2-methylphenyl)amino)-7,8-dihydro-1,6-naphthyridin-6(5H)-yl)-8-methyl-4H-pyrimido[1,2-b]pyridazin-4-one] | 90 | 99

Source: patent publication US20250101041A1, “POSITIVE ALLOSTERIC MODULATORS OF THE MUSCARINIC ACETYLCHOLINE RECEPTOR M4” (Vanderbilt University, priority 2022, published 2025)
